Among the data in ChEMBL document CHEMBL1649230, “Aryl rhodanines specifically inhibit staphylococcal and enterococcal biofilm formation” (Antimicrob Agents Chemother, 2009) are inhibition values, retold here.

For this assay, the system named is Staphylococcus aureus. Description: Antimicrobial activity against Staphylococcus aureus ATCC 35556 assessed as inhibition of bacterial biofilm formation at 4 times MBIC measured after 6 hrs. The assay is classed as functional, organism-based.

Activity calls are given as the source filed them. The rule behind the calls is not given here.

With `CCOc1cc(/C=C2\SC(=S)N(c3ccc(F)cc3)C2=O)ccc1O`, the inhibition entry is “Active”.
